# From ChEMBL document CHEMBL1201862, “PubChem BioAssay data set” (2004)
#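 Tested at 5 concentrations; 48 h exposure; 96-well plates; endpoints linearly interpolated, else capped at highest concentration. GI50 = concentration required for 50% inhibition of growth.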 Activity calls are given as the source filed them. Rule as the data show it: active = GI50 up to about 1.1 µM and inactive = higher.
# Legend:
# Assay in all cases: NCI anticancer screen, dose series, 48 h
# A549 = system: A549
# BT-549 = system: BT-549
# CAKI-1 = system: CAKI-1
# CCRF-CEM = system: CCRF-CEM
# HL-60 = system: HL-60
# HOP-92 = system: HOP-92
# MDA-MB-435 = system: MDA-MB-435
# MOLT-4 = system: MOLT-4
# Malme-3M = system: Malme-3M
# NCI-H23 = system: NCI-H23
# PC-3 = system: PC-3
# RPMI-8226 = system: RPMI-8226
# SF-295 = system: SF-295
# SF-539 = system: SF-539
# SK-MEL-5 = system: SK-MEL-5
# SNB-75 = system: SNB-75
# SW-620 = system: SW-620
# UACC-62 = system: UACC-62
# A498 = system: A498
# NCI-H460 = system: NCI-H460
SMILES,GI50 (A549),GI50 (BT-549),GI50 (CAKI-1),GI50 (CCRF-CEM),GI50 (HL-60),GI50 (HOP-92),GI50 (MDA-MB-435),GI50 (MOLT-4),GI50 (Malme-3M),GI50 (NCI-H23),GI50 (PC-3),GI50 (RPMI-8226),GI50 (SF-295),GI50 (SF-539),GI50 (SK-MEL-5),GI50 (SNB-75),GI50 (SW-620),GI50 (UACC-62),GI50 (A498),GI50 (NCI-H460)
ClC1=C(Cc2ccccc2)Cc2ccc3c(c21)CCC3,33.6 µM (inactive),31.1 µM (inactive),41.4 µM (inactive),27.9 µM (inactive),19.7 µM (inactive),99.8 µM (inactive),28 µM (inactive),19.1 µM (inactive),24.2 µM (inactive),19.7 µM (inactive),32.3 µM (inactive),29.4 µM (inactive),29.4 µM (inactive),74.3 µM (inactive),20.8 µM (inactive),> 10 µM (inactive),25.7 µM (inactive),27.6 µM (inactive),–,–
O=[N+]([O-])C(/C=C(\Cl)[N+](=O)[O-])=C(N1CCOCC1)N1CCOCC1,19.4 µM (inactive),–,27.4 µM (inactive),56.9 µM (inactive),18.4 µM (inactive),25.4 µM (inactive),> 100 µM (inactive),50.2 µM (inactive),27.2 µM (inactive),> 100 µM (inactive),> 100 µM (inactive),26.5 µM (inactive),> 100 µM (inactive),22.3 µM (inactive),> 100 µM (inactive),50.5 µM (inactive),–,85.7 µM (inactive),27 µM (inactive),> 100 µM (inactive)
c1ccc2c(c1)ncn2CCn1ccnc1,> 100 µM (inactive),> 100 µM (inactive),–,> 100 µM (inactive),> 100 µM (inactive),–,> 100 µM (inactive),> 100 µM (inactive),> 100 µM (inactive),> 100 µM (inactive),> 100 µM (inactive),> 100 µM (inactive),> 100 µM (inactive),> 100 µM (inactive),> 100 µM (inactive),> 100 µM (inactive),> 100 µM (inactive),> 100 µM (inactive),> 100 µM (inactive),> 100 µM (inactive)
CC1(C)[C@@H](Cn2nnc3c(N)ncnc32)CC[C@@]1(C)CO,> 100 µM (inactive),–,> 100 µM (inactive),> 100 µM (inactive),–,> 100 µM (inactive),> 100 µM (inactive),< 0.01 µM (active),–,–,> 100 µM (inactive),> 100 µM (inactive),> 100 µM (inactive),> 100 µM (inactive),55 µM (inactive),> 100 µM (inactive),> 100 µM (inactive),> 100 µM (inactive),> 100 µM (inactive),–
COc1cc([C@@]23OC[C@@H]4[C@@H](OC[C@@H]42)c2cc4c(cc23)OCO4)cc(OC)c1OC,< 0.01 µM (active),< 0.0304 µM (active),< 0.0157 µM (active),< 0.01 µM (active),< 0.01 µM (active),–,< 0.01 µM (active),< 0.01 µM (active),0.0838 µM (active),< 0.01 µM (active),< 0.01 µM (active),–,< 0.01 µM (active),< 0.01 µM (active),< 0.01 µM (active),< 0.01 µM (active),< 0.01 µM (active),< 0.01 µM (active),< 0.01 µM (active),< 0.01 µM (active)
Cc1cc(O)c(C(C)C)cc1C(=S)Nc1ccc(Cl)cc1,–,16.5 µM (inactive),14.6 µM (inactive),3.66 µM (inactive),7.05 µM (inactive),–,10.6 µM (inactive),3.4 µM (inactive),7.52 µM (inactive),5.93 µM (inactive),11 µM (inactive),8.3 µM (inactive),14.2 µM (inactive),14.3 µM (inactive),11.5 µM (inactive),–,14.3 µM (inactive),10 µM (inactive),15.1 µM (inactive),11.1 µM (inactive)
C=C1[C@@](C)([C@@H]2CCCS2)[C@H]2C(C)=C[C@]1(C)n1c(=O)n(-c3ccccc3)c(=O)n12,> 100 µM (inactive),> 100 µM (inactive),> 100 µM (inactive),> 100 µM (inactive),> 100 µM (inactive),–,> 100 µM (inactive),> 100 µM (inactive),> 100 µM (inactive),> 100 µM (inactive),> 100 µM (inactive),> 100 µM (inactive),> 100 µM (inactive),> 100 µM (inactive),> 100 µM (inactive),46.5 µM (inactive),> 100 µM (inactive),> 100 µM (inactive),> 100 µM (inactive),> 100 µM (inactive)
N#Cc1c(N)nc(Sc2ccccc2N)c(C#N)c1-c1ccccc1,19.4 µM (inactive),10.8 µM (inactive),28.6 µM (inactive),–,0.141 µM (active),24.5 µM (inactive),23.6 µM (inactive),11.6 µM (inactive),16.9 µM (inactive),13.3 µM (inactive),9.64 µM (inactive),12.7 µM (inactive),–,26.9 µM (inactive),19.4 µM (inactive),–,30.9 µM (inactive),10.3 µM (inactive),–,14.8 µM (inactive)
Cc1ccc2c(c1)Nc1ccccc1P2(=O)O,> 100 µM (inactive),–,> 100 µM (inactive),> 100 µM (inactive),> 100 µM (inactive),> 100 µM (inactive),> 100 µM (inactive),> 100 µM (inactive),> 100 µM (inactive),> 100 µM (inactive),> 100 µM (inactive),–,> 100 µM (inactive),> 100 µM (inactive),> 100 µM (inactive),< 0.01 µM (active),> 100 µM (inactive),> 100 µM (inactive),> 100 µM (inactive),> 100 µM (inactive)
Cc1ccc(Cc2nn(C)c(=O)n2-n2cccc2)cc1,> 100 µM (inactive),> 100 µM (inactive),> 100 µM (inactive),> 100 µM (inactive),–,–,> 100 µM (inactive),> 100 µM (inactive),> 100 µM (inactive),–,> 100 µM (inactive),> 100 µM (inactive),> 100 µM (inactive),–,> 100 µM (inactive),> 100 µM (inactive),> 100 µM (inactive),> 100 µM (inactive),> 100 µM (inactive),> 100 µM (inactive)
COCOc1c(C(O[Si](C)(C)C(C)(C)C)c2cnc(Sc3ccccc3)n2C)ccc(OC)c1OC (stereo unspecified),1.88 µM (inactive),1.69 µM (inactive),3.03 µM (inactive),2.84 µM (inactive),1.87 µM (inactive),2.13 µM (inactive),1.75 µM (inactive),2.54 µM (inactive),2.45 µM (inactive),> 100 µM (inactive),1.55 µM (inactive),1.85 µM (inactive),2.65 µM (inactive),1.97 µM (inactive),1.82 µM (inactive),2.2 µM (inactive),1.93 µM (inactive),1.65 µM (inactive),–,1.53 µM (inactive)
CSC(=S)OC1C(CO[Si](C)(C)C(C)(C)C)OC2OC(C)(C)OC21 (stereo unspecified),25.5 µM (inactive),30.8 µM (inactive),31.6 µM (inactive),16.7 µM (inactive),–,–,33.2 µM (inactive),15.3 µM (inactive),14.8 µM (inactive),19.9 µM (inactive),15.8 µM (inactive),16.3 µM (inactive),17.4 µM (inactive),20.2 µM (inactive),16.8 µM (inactive),> 100 µM (inactive),17.3 µM (inactive),17 µM (inactive),21.8 µM (inactive),17 µM (inactive)
COC(=O)c1cc(OS(=O)(=O)C(F)(F)F)c(=O)n2c1CCCC2,> 100 µM (inactive),> 100 µM (inactive),> 100 µM (inactive),> 100 µM (inactive),> 100 µM (inactive),–,> 100 µM (inactive),> 100 µM (inactive),> 100 µM (inactive),> 100 µM (inactive),> 100 µM (inactive),–,> 100 µM (inactive),> 100 µM (inactive),> 100 µM (inactive),> 100 µM (inactive),> 100 µM (inactive),86.3 µM (inactive),> 100 µM (inactive),–
Cc1ccc(/N=N/c2c(O)ccc3cc(S(=O)(=O)O)ccc23)cc1,> 100 µM (inactive),> 100 µM (inactive),23.9 µM (inactive),> 100 µM (inactive),–,> 100 µM (inactive),> 100 µM (inactive),> 100 µM (inactive),> 100 µM (inactive),> 100 µM (inactive),> 100 µM (inactive),> 100 µM (inactive),> 100 µM (inactive),–,> 100 µM (inactive),34.8 µM (inactive),> 100 µM (inactive),> 100 µM (inactive),–,–
Nc1ncnc2c1ncn2C1OC(CO)CC1O (stereo unspecified),75.7 µM (inactive),29.9 µM (inactive),> 100 µM (inactive),34.3 µM (inactive),> 10 µM (inactive),40.4 µM (inactive),> 10 µM (inactive),> 100 µM (inactive),–,90.8 µM (inactive),9.27 µM (inactive),–,58.7 µM (inactive),34.7 µM (inactive),> 100 µM (inactive),35.2 µM (inactive),35.1 µM (inactive),36.6 µM (inactive),–,–
CCOc1ccc2nc(-c3ccc(O)cc3)sc2c1,> 100 µM (inactive),31.1 µM (inactive),36.7 µM (inactive),–,2 µM (inactive),–,> 100 µM (inactive),> 100 µM (inactive),> 100 µM (inactive),23.5 µM (inactive),58.7 µM (inactive),0.106 µM (active),20.1 µM (inactive),45 µM (inactive),89.5 µM (inactive),–,> 100 µM (inactive),56.9 µM (inactive),30.4 µM (inactive),77.1 µM (inactive)
